For experiment [1], the system named is mouse lens ex vivo culture. Nature of the experiment: Mouse whole lens ex vivo culture, lens capsule immunoblot. It counts as cell-based. As to conditions: for αSMA production after BSO stimulation: ex vivo cultured mouse lens (lens capsule), 10 mM NAC or 0.5 mM GSH-EE with 500 μM BSO, 48 hr; for TGFβ2-mediated αSMA production: lens capsule from whole lens culture, 10 mM NAC or 0.5 mM GSH-EE with 1 ng/ml TGFβ2, 48 hr. On the procedure: The isolated intact lens was rinsed three times with HBSS and then cultured in 12-well-plates with serum-free Medium 199 (ThermoFisher) with 50 unit/ml penicillin streptomycin at 37° C. in 5% CO2 incubator, as described above. The lens explant was cultured following the same procedure as described by a previous report. […] et al., Exp Eye Res 71, 591-597 (2000). In brief, the mouse lens was placed in an anterior-toposterior orientation with the anterior attached to the culture dish. The lens posterior capsule was torn/cut by the tip of extra-fine forceps and then peeled towards anterior capsule and pinned on the plastic culture dish. The lens fiber mass was removed thereafter. The explant was cultured in serum-free MEM medium supplied with 50 unit/ml penicillin streptomycin at 37° C. in 5% CO2 incubator as described above. Only healthy growing explants were used for the described study and any unhealthy looking explants, such as folded explants or those with cell detachment, were discarded. Cells were placed 24 hr before the treatment and fresh medium was replaced immediately before the treatment. The indicated concentrations of BSO, DMF, NAC, GSH-EE or TGFβ2 were added to fresh medium and incubated at various time intervals as indicated. After treatment time, the cells were harvested after three washes with ice-cold PBS and subjected to immunoblot or other assays as described below. For whole lens culture, the serum-free medium with or without BSO, NAC, GSH-EE or TGFβ2 was incubated immediately after isolation for 48 hr and the whole lens or lens capsule was collected for further analysis. For lens explant culture, 48 hr after explant culture, various stimulates were used in fresh serum-free medium for an additional 48 hr, and the explant was fixed with 10% formaldehyde for 10 min before immunofluorescence stain, as described below. The cells, whole lens, lens capsule, and lens fibers were collected and lysed in lysis buffer containing 20 mM Tris pH 7.5, 1 mM EDTA, 1 mM EGTA, 150 mM NaCl, 1% Triton X-100, 2.5 mM sodium pyrophosphate, 1 mM bα-Glycerolphosphate, 1 mM Na3VO4, 1 mg/ml Leupeptin, 1 mM PMSF on ice for 10 min. The protein concentration from the supernatant was determined by protein BCA assay (ThermoFisher). The protein extract was further processed for immunoblot analysis and probed for αSMA, collagen I, vimentin, phosphorylated Smad2, phosphorylated Smad3, phosphorylated GSK-3β and (β-catenin. All data were normalized to the level of GAPDH.

The next experiment relates to mice. Nature of the experiment: Mouse mock cataract surgery in vivo, immunofluorescence of EMT markers. On the procedure: Age-matched four month old mice were used in this study. Mice were anesthetized and a central corneal incision was made. The lens fiber mass was removed by hydrodissection and the remaining lens was carefully washed by HBSS to remove any lens fiber debris. Saline buffer was injected to help mice to restore their proper eye shape. Eye drops containing the antibiotic Ofloxacin were applied once immediately after surgery, and mice were sacrificed at 2, 3, 4 and 5 days after surgery. For each mouse, bilateral surgeries were performed and 25 μl of 10 mM NAC or 2 mM of GSH-EE was injected into right eye chamber immediately after surgery and continual eye drop topical application was given every 6 hr from 7 am to 11 pm. The untreated left eye served as a control. Eyes collected immediately after surgery served as time zero control. At least 6 mice were used in each group. At each time point, eyes were carefully dissected and placed in 4% paraformaldehyde for 18 hr, and then subjected to paraffin embedding and sectioning. For paraffin embedded slides, 6 μm thick sections were deparaffinized and rehydrated using standard procedure. The slides were rinsed with PBS for 10 min and antigen retrieval was carried out in 0.1M sodium citrate, pH 6.0 buffer in a microwave oven using a 4 min at power 5 plus 8 min at power 3 program. The slides were then blocked and permeabilized with 5% normal goat serum, 0.3% triton X-100 for 30 min. The primary antibody, rabbit polyclonal collagen I antibody (1:250) (Abcam, Cambridge, Mass.), rabbit polyclonal vimentin (1:500) (ThermoFisher), mouse monoclonal fibronectin antibody (1:5) (Developmental Studies Hybridoma Bank, DSHB, University of Iowa), mouse monoclonal active β-catenin (Tyr489) (1:10) (DSHB) or FITC labeled mouse monoclonal αSMA antibody (1:1000) (Sigma-Aldrich) were applied in 0.1% BSA PBS solution and incubated at 4° C. overnight in a humid chamber. After wash, the Alexa-488 or/and Alexa-594 conjugated secondary antibodies (ThermoFisher) were then applied and incubated at room temperature for one hour in a humid chamber. After wash, the slides were mounted with Prolong antifade with DAPI (ThermoFisher). For lens explant culture, the explant was briefly fixed with 10% formaldehyde for 10 min and then subjected to directly staining procedure without antigen retrieval procedure. Confocal microscope—All confocal images were collected by a Leica SP8 gSTED confocal microscope equipped with two 3 Hyd SP GaAsP detectors and the AOBS system lasers include a 405 nm, Argon (458, 476, 488, 496, 514 nm), a tunable white light (470 to 670 nm), and a 592 nm STED depletion laser. For proper comparison, each channel of fluorescence was adjusted to the highest sensitivity/intensity but without over saturation from samples with the strongest signal. […]

The structures appear in SMILES notation. Entries after “also recorded” stand apart in the source; their conditions may differ.

Turning to `CC(=O)N[C@@H](CS)C(=O)O` [NAC, N-acetyl cysteine], in experiment [1], the “αSMA production after BSO stimulation” value is listed as “alleviated; also recorded: completely abolish” and the “TGFβ2-mediated αSMA production” value is reported as “alleviated; also recorded: completely block”. In addition, in the experiment on mice (Gclc−/− (LEGSKO) mice, 72 hr after surgery, 10 mM NAC injected into eye chamber plus eye drops every 6 hours), the “nuclear colocalization (translocation) of active β-catenin” value is “significantly attenuated”. The “fibronectin/vimentin and collagen I/αSMA expression compared to control eyes” value in the experiment on mice (WT and LEGSKO mice, 10 mM NAC injection immediately after surgery and continuous topical application) is “remarkable attenuation”. Moreover, the “inhibitory effect on EMT process compared with GSH-EE” value in the experiment on mice (in vivo cataract surgery models) is reported as “much higher inhibitory effect than GSH-EE”.

On to `CCOC(=O)CNC(=O)[C@H](CS)NC(=O)CC[C@H](N)C(=O)O` [GSH-EE, glutathione ethyl ester], for which, in experiment [1], the “αSMA production after BSO stimulation” value is “alleviated; also recorded: partially, but significantly, block” and the “TGFβ2-mediated αSMA production” value is listed as “significantly alleviate”. Moreover, the “TGFβ2-mediated αSMA production” value in experiment [1] (listed as GSHEE) is given as “alleviated”. Also, in the experiment with mice (Gclm KO mice, 2 mM GSH-EE), the “production of EMT marker proteins (fibronectin, vimentin, collagen I, αSMA)” value is “partially but significantly attenuate”.

Values taken from patent US20200038355A1, “ANTIOXIDANTS FOR USE IN OPHTHALMIC SURGERY” (Case Western Reserve University, priority 2017, published 2020).
